This note sets out measurements from patent publication US20250059227A1, “ARTIFICIAL NUCLEIC ACID, METHOD FOR PRODUCING SAME, AND USE OF SAME” (RIKEN GENESIS CO., LTD., priority 2021, published 2025).

Data set [1] has as its system single-stranded DNA (5′-d(agcaaaaaacgc)-3′; SEQ ID NO: 7) (a sense strand). In words: Melting temperature (Tm), capability of forming double strand with single-stranded DNA. The format is binding. The note with it: for capability of forming a double strand with single-stranded DNA versus single-stranded RNA: antisense strand as shown in SEQ ID NO: 1, modified with one base; for Tm: pH 7.2.

The test system of data set [2] is single-stranded RNA (5′-r(agcaaaaaacgc)-3′; SEQ ID NO: 8) (a sense strand). Format: binding. The note with it: pH 7.2.

[NMe] = code of the source, not defined here; [(B)β] = from compound B-13; [(C)Hβ] = from compound C-8; d = 2'-deoxy (DNA)

Consider “5′-d(gcgttxtttgct)-3′ x = (B)β-T: (B)β-T modified oligonucleotide, antisense 12-mer DNA (SEQ ID NO: 1), one x = (B)β-T unit from compound B-13 (antisense GCGTTTTTTGCT; sugars from the 5' end d5 [(B)β]1 d6, backbone not given here)”, for which, in data set [1], the “capability of forming a double strand with single-stranded DNA versus single-stranded RNA” value is given as “superior capability of forming a double strand together with single-stranded DNA over single-stranded RNA”.

For the substance “5′-d(gcgttxtttgct)-3′ x = (C)Hβ-T: (C)Hβ-T modified oligonucleotide, antisense 12-mer DNA (SEQ ID NO: 1), one x = (C)Hβ-T unit from compound C-8 (antisense GCGTTTTTTGCT; sugars from the 5' end d5 [(C)Hβ]1 d6, backbone not given here)”, in data set [1], the “capability of forming a double strand with single-stranded DNA versus single-stranded RNA” value was “superior capability of forming a double strand together with single-stranded DNA over single-stranded RNA”. Take “5′-d(gcgtxxxttgct)-3′ x = NMe-T: reference antisense 12-mer (SEQ ID NO: 3); three x = formula (9) unit, Base thymin-1-yl, R^b Me (antisense GCGTTTTTTGCT; sugars from the 5' end d4 [NMe]3 d5, backbone and methylation of C not given here)”: the Tm in data set [1] came to 51 °C; in data set [2] it was 60 °C.

With “5′-d(gcgxtxtxtgct)-3′ x = NMe-T: reference antisense 12-mer (SEQ ID NO: 2); three x = formula (9) unit, Base thymin-1-yl, R^b Me (antisense GCGTTTTTTGCT; sugars from the 5' end ddd[NMe]d[NMe]d[NMe]dddd, backbone and methylation of C not given here)”, the Tm is 52 °C in data set [1] and 64 °C in data set [2].
